Among the data in patent US20260132132A1, “3A,4,5,6-TETRAHYDRO-1 H-PYRAZOLO[3,4-C]PYRIDIN-7(7AH)-ONE DERIVATIVES AS FACTOR XIIA INHIBITORS” (KALVISTA PHARMACEUTICALS LIMITED, priority 2022, published 2026) are IC50 values, retold here.

The target in the assay is T1, Human Factor XIIa (hFXIIa) (Homo sapiens, UniProt P00748).
T1 construct: purchased Enzyme Research Laboratories
T1 sequence (P00748 373-615 limits assumed): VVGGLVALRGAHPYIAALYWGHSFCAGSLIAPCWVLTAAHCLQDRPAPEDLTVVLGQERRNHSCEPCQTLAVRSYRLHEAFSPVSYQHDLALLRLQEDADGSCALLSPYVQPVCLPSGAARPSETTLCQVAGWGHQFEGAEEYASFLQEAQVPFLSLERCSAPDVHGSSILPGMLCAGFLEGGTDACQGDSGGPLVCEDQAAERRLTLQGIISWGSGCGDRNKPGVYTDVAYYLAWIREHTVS
T1 sequence (P00748 20-372 partner limits assumed): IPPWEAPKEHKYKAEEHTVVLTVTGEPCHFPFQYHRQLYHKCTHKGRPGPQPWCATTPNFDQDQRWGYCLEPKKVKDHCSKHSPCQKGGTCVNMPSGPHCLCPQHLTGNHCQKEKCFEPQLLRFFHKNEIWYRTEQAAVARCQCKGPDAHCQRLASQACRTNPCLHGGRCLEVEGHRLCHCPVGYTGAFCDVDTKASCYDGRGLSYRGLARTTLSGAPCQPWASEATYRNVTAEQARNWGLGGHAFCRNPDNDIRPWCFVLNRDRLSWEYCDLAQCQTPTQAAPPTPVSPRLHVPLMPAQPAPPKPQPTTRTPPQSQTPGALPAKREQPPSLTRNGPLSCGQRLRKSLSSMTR
Put plainly: Determination of Human Factor XIIa (hFXIIa) inhibition, fluorogenic substrate IC50 assay. The settings on record: fluorogenic substrate H-DPro-Phe-Arg-AFC at Km, 25° C., read-out: Human FXIIa IC50. The class given is biochemical. Here is the method: Determination of Human Factor XIIa (hFXIIa) inhibition
The Km for the cleavage of the substrate by hFXIIa was determined by standard transformation of the Michaelis-Menten equation, with subsequent inhibition assays performed at substrate Km concentration.
With `CCNC(=O)c1nn(-c2cccc(Cl)c2)c2c1CCN(c1cccc(N3C(=O)C[C@H]4C[C@H]43)c1)C2=O` (single isomer, unassigned) [Example 1407, 1-(3-Chlorophenyl)-N-ethyl-7-oxo-6-(3-((1R*,5R*)-3-oxo-2-azabicyclo[3.1.0]hexan-2-yl)phenyl)-4,5,6,7-tetrahydro-1H-pyrazolo[3,4-c]pyridine-3-carboxamide], the IC50 was in the range of 10000 to 40000 nM.

With `CN1CCc2ccc(N3CCc4c(C(=O)NCC5CC5)nn(-c5cccc(Cl)c5)c4C3=O)nc2C1` [Example 1034, 1-(3-Chlorophenyl)-N-(cyclopropylmethyl)-6-(7-methyl-5,6,7,8-tetrahydro-1,7-naphthyridin-2-yl)-7-oxo-4,5,6,7-tetrahydro-1H-pyrazolo[3,4-c]pyridine-3-carboxamide], the IC50 is 300 to 1000 nM.

Consider `O=C(NCC1CC1)c1nn(-c2cccc(Cl)c2)c2c1CCN(c1cccc(CN3CCOC3=O)c1)C2=O` [Example 1316, 1-(3-chlorophenyl)-N-(cyclopropylmethyl)-7-oxo-6-(3-((2-oxooxazolidin-3-yl)methyl)phenyl)-4,5,6,7-tetrahydro-1H-pyrazolo[3,4-c]pyridine-3-carboxamide], for which the half-inhibitory concentration (IC50) fell in the range of 10000 to 40000 nM.

Regarding `COc1cnccc1CNC(=O)c1nn(-c2cccc(Cl)c2)c2c1CCN(c1ccc3c(c1)CN(CCO)CC3)C2=O` [Example 1172, 1-(3-chlorophenyl)-6-(2-(2-hydroxyethyl)-1,2,3,4-tetrahydroisoquinolin-7-yl)-N-((3-methoxypyridin-4-yl)methyl)-7-oxo-4,5,6,7-tetrahydro-1H-pyrazolo[3,4-c]pyridine-3-carboxamide], the IC50 lay in the range of 10 to 100 nM.

Take `O=C(N[C@@H]1CCOC1)c1nn(-c2cccc(Cl)c2)c2c1CCN(c1ccc3c(c1)CN(CCO)CC3)C2=O` [Example 1108, (R)-1-(3-chlorophenyl)-6-(2-(2-hydroxyethyl)-1,2,3,4-tetrahydroisoquinolin-7-yl)-7-oxo-N-(tetrahydrofuran-3-yl)-4,5,6,7-tetrahydro-1H-pyrazolo[3,4-c]pyridine-3-carboxamide]: the IC50 fell in the range of 100 to 300 nM.

As to `CN1CCc2ccc(N3CCc4c(C(=O)N[C@H](CO)c5ccccc5)nn(-c5cccc(Cl)c5F)c4C3=O)cc2C1` [Example 2001, (S)-1-(3-chloro-2-fluorophenyl)-N-(2-hydroxy-1-phenylethyl)-6-(2-methyl-1,2,3,4-tetrahydroisoquinolin-7-yl)-7-oxo-4,5,6,7-tetrahydro-1H-pyrazolo[3,4-c]pyridine-3-carboxamide], the IC50 fell in the range of 10 to 100 nM.

Regarding `CN1Cc2ccc(N3CCc4c(C(=O)NCc5ccccc5)nn(-c5cccc(Cl)c5)c4C3=O)cc2C1` [Example 1028, N-benzyl-1-(3-chlorophenyl)-6-(2-methylisoindolin-5-yl)-7-oxo-4,5,6,7-tetrahydro-1H-pyrazolo[3,4-c]pyridine-3-carboxamide], the half-maximal inhibitory concentration (IC50) is 300 to 1000 nM.

Consider `CN(CCO)C(=O)c1cccc(N2CCc3c(C(=O)NCC4CC4)nn(-c4cccc(Cl)c4)c3C2=O)c1` [Example 1312, 1-(3-chlorophenyl)-N-(cyclopropylmethyl)-6-(3-((2-hydroxyethyl)(methyl)carbamoyl)phenyl)-7-oxo-4,5,6,7-tetrahydro-1H-pyrazolo[3,4-c]pyridine-3-carboxamide], for which the IC50 was in the range of 3000 to 10000 nM.

Regarding `O=C(NCC1CC1)c1nn(-c2cccc(Cl)c2)c2c1CCN(c1ccc3c(c1)CN(CCO)CC3(F)F)C2=O` [Example 1300, 1-(3-chlorophenyl)-N-(cyclopropylmethyl)-6-(4,4-difluoro-2-(2-hydroxyethyl)-1,2,3,4-tetrahydroisoquinolin-7-yl)-7-oxo-4,5,6,7-tetrahydro-1H-pyrazolo[3,4-c]pyridine-3-carboxamide], the 50% inhibitory concentration (IC50) was in the range of 3000 to 10000 nM.

`CCN1CCc2ccc(N3CCc4c(C(=O)N[C@H]5CCOC5)nn(-c5cccc(Cl)c5)c4C3=O)cc2C1` [Example 1090, (S)-1-(3-chlorophenyl)-6-(2-ethyl-1,2,3,4-tetrahydroisoquinolin-7-yl)-7-oxo-N-(tetrahydrofuran-3-yl)-4,5,6,7-tetrahydro-1H-pyrazolo[3,4-c]pyridine-3-carboxamide]: the IC50 lay in the range of 100 to 300 nM.

Turning to `O=C(NCc1ccccc1)c1nn(-c2cccc(Cl)c2)c2c1CCN(c1ccc3c(c1)CN(CC1CCCC1)CC3)C2=O` [Example 1020, N-benzyl-1-(3-chlorophenyl)-6-(2-(cyclopentylmethyl)-1,2,3,4-tetrahydroisoquinolin-7-yl)-7-oxo-4,5,6,7-tetrahydro-1H-pyrazolo[3,4-c]pyridine-3-carboxamide], the IC50 lay in the range of 300 to 1000 nM.

For `CN1CCc2cc(N3CCc4c(C(=O)NCC5CC5)nn(-c5cccc(Cl)c5)c4C3=O)ccc2C1=O` [Example 1190, 1-(3-chlorophenyl)-N-(cyclopropylmethyl)-6-(2-methyl-1-oxo-1,2,3,4-tetrahydroisoquinolin-6-yl)-7-oxo-4,5,6,7-tetrahydro-1H-pyrazolo[3,4-c]pyridine-3-carboxamide], the IC50 lay in the range of 10000 to 40000 nM.

`Cc1ccncc1CNC(=O)c1nn(-c2cccc(Cl)c2)c2c1CCN(c1cnc3c(c1)C(=O)N(C)CC3)C2=O` [Example 1302, 1-(3-chlorophenyl)-6-(6-methyl-5-oxo-5,6,7,8-tetrahydro-1,6-naphthyridin-3-yl)-N-((4-methylpyridin-3-yl)methyl)-7-oxo-4,5,6,7-tetrahydro-1H-pyrazolo[3,4-c]pyridine-3-carboxamide]: the IC50 lay in the range of 300 to 1000 nM.

Turning to `COCc1nn(-c2cccc(Cl)c2)c2c1CCN(c1ccc3c(c1)CN(CCO)CC3)C2=O` [Example 1069, 1-(3-chlorophenyl)-6-(2-(2-hydroxyethyl)-1,2,3,4-tetrahydroisoquinolin-7-yl)-3-(methoxymethyl)-1,4,5,6-tetrahydro-7H-pyrazolo[3,4-c]pyridin-7-one], the IC50 is 300 to 1000 nM.

With `CN(C)C(=O)c1cc(N2CCc3c(C(=O)NCC4CC4)nn(-c4cccc(Cl)c4)c3C2=O)ccc1F` [Example 1281, 1-(3-chlorophenyl)-N-(cyclopropylmethyl)-6-(3-(dimethylcarbamoyl)-4-fluorophenyl)-7-oxo-4,5,6,7-tetrahydro-1H-pyrazolo[3,4-c]pyridine-3-carboxamide], the IC50 was 3000 to 10000 nM.

As for `COc1cccnc1CNC(=O)c1nn(-c2cccc(Cl)c2)c2c1CCN(c1cc3c(cn1)CCN(CCO)C3)C2=O` [Example 1221, 1-(3-chlorophenyl)-6-(6-(2-hydroxyethyl)-5,6,7,8-tetrahydro-2,6-naphthyridin-3-yl)-N-((3-methoxypyridin-2-yl)methyl)-7-oxo-4,5,6,7-tetrahydro-1H-pyrazolo[3,4-c]pyridine-3-carboxamide], the IC50 was 10 to 100 nM.

With `CN1CCc2ccc(N3CCc4c(C(=O)NC5CC6CCC5O6)nn(-c5cccc(Cl)c5)c4C3=O)cc2C1` (stereo not shown) [Example 1075, N-(7-oxabicyclo[2.2.1]heptan-2-yl)-1-(3-chlorophenyl)-6-(2-methyl-1,2,3,4-tetrahydroisoquinolin-7-yl)-7-oxo-4,5,6,7-tetrahydro-1H-pyrazolo[3,4-c]pyridine-3-carboxamide], the IC50 fell in the range of 100 to 300 nM.

In the case of `CCCN1CCc2ccc(N3CCc4c(C(=O)NCC5CC5)nn(-c5cccc(Cl)c5)c4C3=O)cc2C1` [Example 1052, 1-(3-chlorophenyl)-N-(cyclopropylmethyl)-7-oxo-6-(2-propyl-1,2,3,4-tetrahydroisoquinolin-7-yl)-4,5,6,7-tetrahydro-1H-pyrazolo[3,4-c]pyridine-3-carboxamide], the IC50 is 100 to 300 nM.

On to `O=C(NCc1ccccc1)c1nn(-c2cccc(Cl)c2)c2c1CCN(c1cccc(CN3CCCC3)c1)C2=O` [Example 1017, N-benzyl-1-(3-chlorophenyl)-7-oxo-6-(3-(pyrrolidin-1-ylmethyl)phenyl)-4,5,6,7-tetrahydro-1H-pyrazolo[3,4-c]pyridine-3-carboxamide], for which the concentration for half-maximal inhibition (IC50) was 300 to 1000 nM.

As to `CN1CCc2ccc(N3CCc4c(C(=O)NC56CC(O)(C5)C6)nn(-c5cccc(Cl)c5)c4C3=O)cc2C1` [Example 1437, 1-(3-chlorophenyl)-N-(3-hydroxybicyclo[1.1.1]pentan-1-yl)-6-(2-methyl-1,2,3,4-tetrahydroisoquinolin-7-yl)-7-oxo-4,5,6,7-tetrahydro-1H-pyrazolo[3,4-c]pyridine-3-carboxamide], the IC50 was in the range of 100 to 300 nM.

On to `CCN1CCc2ccc(N3CCc4c(C(=O)NCc5cc(C)n(C)n5)nn(-c5cccc(Cl)c5)c4C3=O)cc2C1=O` [Example 1219, 1-(3-chlorophenyl)-N-((1,5-dimethyl-1H-pyrazol-3-yl)methyl)-6-(2-ethyl-1-oxo-1,2,3,4-tetrahydroisoquinolin-7-yl)-7-oxo-4,5,6,7-tetrahydro-1H-pyrazolo[3,4-c]pyridine-3-carboxamide], for which the IC50 is 10 to 100 nM.

Turning to `COc1ccc(-n2nc(C(=O)NCc3cnccc3C)c3c2C(=O)N(c2ccc4c(c2)CN(CCO)CC4)CC3)cc1` [Example 2003, 6-(2-(2-hydroxyethyl)-1,2,3,4-tetrahydroisoquinolin-7-yl)-1-(4-methoxyphenyl)-N-((4-methylpyridin-3-yl)methyl)-7-oxo-4,5,6,7-tetrahydro-1H-pyrazolo[3,4-c]pyridine-3-carboxamide], the IC50 lay within 300 to 1000 nM.

As usually defined, the IC50 is the point on the concentration scale where inhibition reaches its midpoint.
